The test deals with T1, GST-tagged ROR gamma ligand binding domain (LBD) (Homo sapiens, UniProt P51449).
T1 construct: purchased Invitrogen
T1 sequence (P51449 269-508 limits assumed): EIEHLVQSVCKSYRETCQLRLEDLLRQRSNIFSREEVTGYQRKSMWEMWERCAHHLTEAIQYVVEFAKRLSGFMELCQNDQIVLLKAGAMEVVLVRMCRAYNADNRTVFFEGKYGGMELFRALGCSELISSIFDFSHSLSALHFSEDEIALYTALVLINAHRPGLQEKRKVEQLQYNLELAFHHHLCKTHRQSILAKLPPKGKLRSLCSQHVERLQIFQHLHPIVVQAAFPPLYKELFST
In words: TR-FRET assay for ROR gamma (LanthaScreen co-activator peptide recruitment). It is filed as biochemical. The note with it: for inhibition at 1 µM: compound concentration 1 μM; for inhibition at 1 µM / inhibition at 10 µM: TR-FRET ratio 520/495, percent of control; for inhibition at 10 µM: compound concentration 10 μM; for IC50: from dose response curve, nonlinear regression, read-out: IC50 range. From the text: The compounds described herein were screened for ROR gamma modulator activity using the TR-FRET assay (LanthaScreen™ available from Invitrogen of Carlsbad, Calif.) as described in JBC 2011, 286, 26: 22707-10; and Drug Metabolism and Disposition 2009, 37, 10: 2069-78.
Binding of the co-activator peptide, causes an increase in the TR-FRET signal while binding of an antagonist decreases the recruitment of the co-activator peptide, causing a decrease in the TR-FRET signal compared to control with no compound. The assay was performed using a two-step procedure, pre-incubation step with the compound followed by the detection step on addition of the anti-GST tagged terbium (Tb) and fluorescein tagged fluorophores as the acceptor.
Test compounds or reference compounds such as T0901317 (Calbiochem) were dissolved in dimethylsulfoxide (DMSO) to prepare 10.0 mM stock solutions and diluted to the desired concentration. The final concentration of DMSO in the reaction was 4% (v/v). The assay mixture was prepared by mixing 10 nM of the GST-tagged ROR gamma ligand binding domain (LBD) in the assay buffer containing 25 mM HEPES (pH 7.4), 100 mM NaCl, 5 mM DTT and 0.01% BSA with or without the desired concentration of the compound. The reaction was incubated at 22° C. for 1 hour. The pre-incubation step was terminated by addition of the detection mixture containing 300 nM Fluorescein-D22 co-activator peptide and 10 nM lantha screen Tb-anti GST antibody into the reaction mixture.
After shaking for 5 minutes the reaction was further incubated for 1 hour at room temperature and read at 4° C. on an Infinite F500 reader as per the kit instructions (Invitrogen). The inhibition of test compound was calculated based on the TR-FRET ratio of 520/495. The activity was calculated as a percent of control reaction. IC50 values were calculated from dose response curve by nonlinear regression analysis using GraphPad Prism software.
A general note: In TR-FRET formats the signal depends on donor and acceptor labels being close together.

Drawing on patent publication US10344024B2, “Compounds as ROR gamma modulators” (Glenmark Pharmaceuticals S.A., priority 2015, dated 2019), this text covers inhibition and IC50 for 20 compounds.

In the case of `CCC(F)(F)c1ccc(CC(=O)Nc2ccc(-c3nccnc3-c3ccc(Cl)cc3)cc2)cc1` [Example 1, N-(4-(3-(4-chlorophenyl)pyrazin-2-yl)phenyl)-2-(4-(1,1-difluoropropyl)phenyl) acetamide], the inhibition (usually the change of the read-out against control, counted positive when it falls) at 1 µM was 80.9%; the inhibition at 10 µM was found to be 81.5%; the IC50 (as a rule, the midpoint of a concentration-inhibition curve) is < 50 nM.
For `CC(O)C(F)(F)c1ccc(CC(=O)Nc2ccc(-c3nccnc3-c3ccc(Cl)cc3)cc2)cc1` (stereo not shown) [Example 2, N-(4-(3-(4-chlorophenyl)pyrazin-2-yl)phenyl)-2-(4-(1,1-difluoro-2-hydroxypropyl)phenyl)acetamide], in that order: 76.1%, 82.7% and < 50 nM.
Take `COCC(F)(F)c1ccc(CC(=O)Nc2ccc(-c3nccnc3-c3ccc(Cl)cc3)cc2)cc1` [Example 3, N-(4-(3-(4-Chlorophenyl)pyrazin-2-yl)phenyl)-2-(4-(1,1-difluoro-2-methoxyethyl)phenyl)acetamide]: the inhibition at 1 µM is 74%, the inhibition at 10 µM turned out to be 84.8% and the half-maximal inhibitory concentration (IC50) is 50 to 100 nM.
For `CC(O)C(F)(F)c1ccc(CC(=O)Nc2ccc(-c3nccnc3-c3cccc(Cl)c3)cc2)cc1` (stereo not shown) [Example 4, N-(4-(3-(3-Chlorophenyl)pyrazin-2-yl)phenyl)-2-(4-(1,1-difluoro-2-hydroxypropyl)phenyl)acetamide], the inhibition at 1 µM came out at 60.7%, the inhibition at 10 µM was found to be 77.8% and the IC50 is > 500 nM.
On to `CCC(F)(F)c1ccc(CC(=O)Nc2ccc(-c3nccnc3-c3ccccc3Cl)cc2)cc1` [Example 5, N-(4-(3-(2-Chlorophenyl)pyrazin-2-yl)phenyl)-2-(4-(1,1-difluoropropyl)phenyl)acetamide], for which the inhibition at 1 µM worked out at 81.5%, the inhibition at 10 µM amounted to 84.4% and the IC50 is < 50 nM.
For `CCC(F)(F)c1ccc(CC(=O)Nc2ccc(-c3nccnc3-c3ccc(Cl)cc3F)cc2)cc1` [Example 6, N-(4-(3-(4-Chloro-2-fluorophenyl)pyrazin-2-yl)phenyl)-2-(4-(1,1-difluoropropyl)phenyl)acetamide], in that order: 87.4%, 86.4% and < 50 nM.
As for `CCC(F)(F)c1ccc(CC(=O)Nc2ccc(-c3ncccc3-c3ccc(Cl)cc3)cc2)cc1` [Example 7, N-(4-(3-(4-Chlorophenyl)pyridin-2-yl)phenyl)-2-(4-(1,1-difluoropropyl)phenyl)acetamide], the inhibition at 1 µM amounted to 83%, the inhibition at 10 µM stood at 86.2% and the IC50 was < 50 nM.
The matching figures for `CC(O)C(F)(F)c1ccc(CC(=O)Nc2ccc(-c3nccnc3-c3ccc(F)cc3)cc2)cc1` (stereo not shown) [Example 8, 2-(4-(1,1-Difluoro-2-hydroxypropyl)phenyl)-N-(4-(3-(4-fluorophenyl)pyrazin-2-yl)phenyl)acetamide]: 73.6%, 85.3% and 100 to 500 nM.
In the case of `CC(O)C(F)(F)c1ccc(CC(=O)Nc2ccc(-c3nccnc3-c3ccc(F)c(F)c3)cc2)cc1` (stereo not shown) [Example 9, 2-(4-(1,1-Difluoro-2-hydroxypropyl)phenyl)-N-(4-(3-(3,4-difluorophenyl)pyrazin-2-yl)phenyl)acetamide], the inhibition at 1 µM was 55.2%, the inhibition at 10 µM was 72.1% and the concentration for half-maximal inhibition (IC50) is > 500 nM.
As for `CCC(F)(F)c1ccc(CC(=O)Nc2ccc(-c3nccnc3-c3ccc(F)cc3F)cc2)cc1` [Example 10, N-(4-(3-(2,4-Difluorophenyl)pyrazin-2-yl)phenyl)-2-(4-(1,1-difluoropropyl)phenyl)acetamide], the inhibition at 1 µM was 78.2%, the inhibition at 10 µM worked out at 83% and the IC50 lay within 50 to 100 nM.
For `CCC(F)(F)c1ccc(CC(=O)Nc2ccc(-c3nccnc3-c3ccccc3F)cc2)cc1` [Example 11, 2-(4-(1,1-Difluoropropyl)phenyl)-N-(4-(3-(2-fluorophenyl)pyrazin-2-yl)phenyl)acetamide], in that order: 78.8%, 83.8% and < 50 nM.
As to `CCC(F)(F)c1ccc(CC(=O)Nc2ccc(-c3nccnc3-c3ccc(C(F)(F)F)cc3)cc2)cc1` [Example 12, 2-(4-(1,1-Difluoropropyl)phenyl)-N-(4-(3-(4-(trifluoromethyl)phenyl)pyrazin-2-yl)phenyl)acetamide], the inhibition at 1 µM turned out to be 85.6%, the inhibition at 10 µM is 83% and the concentration for half-maximal inhibition (IC50) was < 50 nM.
The matching figures for `CCC(F)(F)c1ccc(CC(=O)Nc2ccc(-c3nccnc3-c3ccc(C)cc3)cc2)cc1` [Example 13, 2-(4-(1,1-Difluoropropyl)phenyl)-N-(4-(3-(p-tolyl)pyrazin-2-yl)phenyl)acetamide]: 82.7%, 84.4% and < 50 nM.
For `CCC(F)(F)c1ccc(CC(=O)Nc2ccc(-c3ncccc3-c3ccc(F)cc3)cc2)cc1` [Example 14, 2-(4-(1,1-Difluoropropyl)phenyl)-N-(4-(3-(4-fluorophenyl)pyridin-2-yl)phenyl)acetamide], in that order: 74.4%, 83.8% and 100 to 500 nM.
The matching figures for `CCC(F)(F)c1ccc(CC(=O)Nc2ccc(-c3nccnc3-c3ccccc3)cc2)cc1` [Example 15, 2-(4-(1,1-Difluoropropyl)phenyl)-N-(4-(3-phenylpyrazin-2-yl)phenyl)acetamide]: 72.2%, 80.6% and 100 to 500 nM.
Regarding `CCC(F)(F)c1ccc(CC(=O)Nc2ccc(-c3nccnc3-c3ccc(C#N)cc3)cc2)cc1` [Example 16, N-(4-(3-(4-Cyanophenyl)pyrazin-2-yl)phenyl)-2-(4-(1,1-difluoropropyl)phenyl)acetamide], the inhibition at 1 µM turned out to be 69.9% and the inhibition at 10 µM was 60.5%.
For `CCC(F)(F)c1ccc(CC(=O)Nc2ccc(-c3nccnc3-c3ccncc3)cc2)cc1` [Example 17, 2-(4-(1,1-Difluoropropyl)phenyl)-N-(4-(3-(pyridin-4-yl)pyrazin-2-yl)phenyl)acetamide], in that order: 60.5% and 74.4%.
On to `CC(O)C(F)(F)c1ccc(CC(=O)Nc2ccc(-c3nccnc3N3CCC(F)(F)CC3)cc2)cc1` (stereo not shown) [Example 18, 2-(4-(1,1-Difluoro-2-hydroxypropyl)phenyl)-N-(4-(3-(4,4-difluoropiperidin-1-yl)pyrazin-2-yl)phenyl)acetamide], for which the inhibition at 1 µM is 32.4% and the inhibition at 10 µM turned out to be 71.2%.
The matching figures for `CC(O)C(F)(F)c1ccc(CC(=O)Nc2ccc(-c3nccnc3N3CCOCC3)cc2)cc1` (stereo not shown) [Example 19, 2-(4-(1,1-Difluoro-2-hydroxypropyl)phenyl)-N-(4-(3-morpholinopyrazin-2-yl)phenyl)acetamide]: 42.2% and 48.8%.
For `CCC(F)(F)c1ccc(CC(=O)Nc2ccc(-n3nc(C)cc3-c3ccc(F)cc3)cc2)cc1` [Example 20, 2-(4-(1,1-Difluoropropyl)phenyl)-N-(4-(5-(4-fluorophenyl)-3-methyl-1H-pyrazol-1-yl)phenyl)acetamide], in that order: 65.5% and 78%.
